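Cultured in 96-well plates, cells were exposed to test compound for 48 hours across five concentrations. GI50 is the concentration that inhibits growth by half.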 Calls of active or inactive are those of the source. Cut-off read from the data, not from the text of the source: active = GI50 up to about 1.1 µM and inactive = higher.
Tests used:
Assay in all cases: NCI tumour cell line growth inhibition, 48 h
NCI-H23 = system: NCI-H23
SF-539 = system: SF-539
786-0 = system: 786-0
NCI-H226 = system: NCI-H226
MDA-MB-435 = system: MDA-MB-435
CCRF-CEM = system: CCRF-CEM
HCT-15 = system: HCT-15
CAKI-1 = system: CAKI-1
MCF7 = system: MCF7
COLO 205 = system: COLO 205
UACC-257 = system: UACC-257
SF-268 = system: SF-268
U-251 = system: U-251
IGROV-1 = system: IGROV-1
MOLT-4 = system: MOLT-4
HOP-62 = system: HOP-62
SF-295 = system: SF-295
SW-620 = system: SW-620
NCI/ADR-RES = system: NCI/ADR-RES
NCI-H522 = system: NCI-H522

Row | SMILES | GI50 (NCI-H23) | GI50 (SF-539) | GI50 (786-0) | GI50 (NCI-H226) | GI50 (MDA-MB-435) | GI50 (CCRF-CEM) | GI50 (HCT-15) | GI50 (CAKI-1) | GI50 (MCF7) | GI50 (COLO 205) | GI50 (UACC-257) | GI50 (SF-268) | GI50 (U-251) | GI50 (IGROV-1) | GI50 (MOLT-4) | GI50 (HOP-62) | GI50 (SF-295) | GI50 (SW-620) | GI50 (NCI/ADR-RES) | GI50 (NCI-H522)
1 | CC1(C)C2CCC(=O)C1CC2 (stereo not given) | > 100 µM (inactive) | > 100 µM (inactive) | > 100 µM (inactive) | > 100 µM (inactive) | > 100 µM (inactive) | > 100 µM (inactive) | > 100 µM | > 100 µM (inactive) | > 100 µM (inactive) | > 100 µM (inactive) | > 100 µM (inactive) | > 100 µM (inactive) | > 100 µM (inactive) | > 100 µM (inactive) | > 100 µM (inactive) | > 100 µM (inactive) | > 100 µM (inactive) | > 100 µM (inactive) | > 100 µM (inactive) | > 100 µM (inactive)
2 | O=c1cc(-c2ccccc2)oc2ccc(Oc3nnnn3-c3ccccc3)cc12 | > 62.7 µM (inactive) | 27.7 µM (inactive) | 25.9 µM (inactive) | 25 µM (inactive) | 11.9 µM (inactive) | > 100 µM (inactive) | > 100 µM | > 50.1 µM (inactive) | > 45.9 µM (inactive) | > 87.3 µM (inactive) | > 100 µM (inactive) | 11.8 µM (inactive) | 35 µM (inactive) | > 75.5 µM (inactive) | > 100 µM (inactive) | 29.4 µM (inactive) | 29.2 µM (inactive) | > 100 µM (inactive) | 78.2 µM (inactive) | 70.5 µM (inactive)
3 | NC(=O)CO/N=C1/C(=C2/C(=O)Nc3ccccc32)Nc2ccccc21 | 0.811 µM (active) | > 100 µM (inactive) | > 100 µM (inactive) | 4.35 µM (inactive) | 21.1 µM (inactive) | 11.5 µM (inactive) | 2 µM | 0.247 µM (active) | 1.38 µM (inactive) | 1.86 µM (inactive) | > 100 µM (inactive) | > 100 µM (inactive) | > 100 µM (inactive) | 0.395 µM (active) | 3.44 µM (inactive) | 22.6 µM (inactive) | > 100 µM (inactive) | 4.95 µM (inactive) | > 100 µM (inactive) | > 100 µM (inactive)
